Key:
[1] = test system: human lymphoma cell line RAMOS cells; assay: Cell growth inhibition test using RAMOS cell, MTT assay; format: cell-based; details: 50% growth inhibition concentration
Experimental: A cell growth inhibition test was carried out by treating human lymphoma cell line RAMOS cells with a test compound for a given period and then counting the number of viable cells by MTT assay or CellTiter-Glo Luminescent Cell Viability Assay (manufactured by Promega Corp.; hereinafter, referred to as ATP assay).
RAMOS cells were suspended in a medium (RPMI1640 medium containing 10% fetal bovine serum). The cell suspension was inoculated at 5000 cells/150 μL/well to a 96-well multiwell plate. The test compound was dissolved in DMSO, and this solution was diluted with medium to prepare a sample solution (DMSO concentration: 1% or lower). Subsequently, test compound-free medium or the sample solution was added thereto at 50 μL/well. The MTT assay was carried out at the day of addition of the sample solution or the DMSO dilution to the cells and after culture at 37° C. for 3 days under 5% CO2 of the cells supplemented with the sample solution or the medium. The MTT assay was carried out as follows.
A 5 mg/mL solution of MTT (3-(4,5-dimethylthiazol-2-yl)-2,5-diphenyltetrazolium bromide, Sigma-Aldrich Corp., M-2128) was prepared using a phosphate buffered solution (Dulbecco's phosphate-buffered saline). This MTT solution was added at 20 μL/well to the plate. Then, the plate was incubated at 37° C. for 4 hours under 5% CO2. The plate was centrifuged at 1200 rpm for 5 minutes, and then, the culture supernatant was removed by suction using a dispenser. DMSO was added thereto at 150 μL/well to dissolve formed formazan. […] from each well was rendered uniform by the stirring of the plate using a plate mixer. The absorbance of each well was measured using a plate reader under conditions involving OD of 540 nm and reference of 660 nm.
The number of viable cells and absorbance (hereinafter, referred to as an OD value) have been confirmed to correlate with each other. Therefore, the rate of cell growth was calculated according to the following expression: Rate of cell growth (T/C %) of a test compound-supplemented well=100×[(B−C)/(A−C)] wherein A represents the OD value (final culture date) of a test compound-free well; B represents the OD value (final culture date) of a test compound-containing well; and C represents the OD value (day of cell inoculation) of a well at the start of contact of the cells with the test compound.
T/C % at each concentration of the test compound was determined. The concentration at which the test compound offered 50% growth rate was calculated as a 50% growth inhibition concentration (GI50) value from the growth rates at two points interpolating 50% and the concentrations, and is shown in Table 56.

TIP48/TIP49 complex = target: T1, TIP48/TIP49 complex (Homo sapiens, UniProt Q9Y230+Q9Y265); assay: ATPase assay of TIP48/TIP49 complex (ADP-Glo); format: biochemical; details: concentration at which the ATPase activity was inhibited by 50%
T1 construct: made in house; host or cells: E. coli
T1 sequence (Q9Y230 whole entry): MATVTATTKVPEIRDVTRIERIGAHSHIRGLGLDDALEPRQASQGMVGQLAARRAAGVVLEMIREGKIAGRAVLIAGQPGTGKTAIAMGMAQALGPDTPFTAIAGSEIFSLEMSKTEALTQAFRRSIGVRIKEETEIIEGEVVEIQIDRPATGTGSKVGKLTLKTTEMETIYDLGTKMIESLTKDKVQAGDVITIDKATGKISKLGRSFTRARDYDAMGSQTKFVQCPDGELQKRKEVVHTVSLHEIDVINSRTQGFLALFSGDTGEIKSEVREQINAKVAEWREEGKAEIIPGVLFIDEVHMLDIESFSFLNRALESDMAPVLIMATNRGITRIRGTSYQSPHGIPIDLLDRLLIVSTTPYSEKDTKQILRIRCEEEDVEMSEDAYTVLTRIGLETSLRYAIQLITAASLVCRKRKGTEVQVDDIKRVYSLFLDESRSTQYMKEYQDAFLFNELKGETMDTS
T1 sequence (Q9Y265 whole entry): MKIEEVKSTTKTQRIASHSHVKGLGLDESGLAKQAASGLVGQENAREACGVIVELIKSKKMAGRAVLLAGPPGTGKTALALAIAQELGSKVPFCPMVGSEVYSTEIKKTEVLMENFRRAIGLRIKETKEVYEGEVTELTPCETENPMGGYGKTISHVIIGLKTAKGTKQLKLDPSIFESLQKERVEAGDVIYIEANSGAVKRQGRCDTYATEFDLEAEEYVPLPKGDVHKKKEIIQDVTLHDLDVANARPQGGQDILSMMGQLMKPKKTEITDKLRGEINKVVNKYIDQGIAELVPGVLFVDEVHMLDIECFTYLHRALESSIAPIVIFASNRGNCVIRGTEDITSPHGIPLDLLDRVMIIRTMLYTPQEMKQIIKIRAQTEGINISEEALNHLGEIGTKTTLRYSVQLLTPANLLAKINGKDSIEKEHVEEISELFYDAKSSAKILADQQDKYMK
Outline: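 Compound was tested over 10 four-fold concentrations, 200 μM down to 0.0007 μM at 2% DMSO, against E. coli-derived human rTIP48/rTIP49 for 1.5 h at room temperature, pH 7.5 with ATP. ATP hydrolysis was read as ADP-Glo luminescence, normalised to complex-only and no-complex wells, then fitted to dose-response curves.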

SMILES | GI50 [1] | IC50 (TIP48/TIP49 complex)
COc1ccc(Cl)cc1NC(=O)CC1(CC(=O)Nc2c(C)n(C)n(-c3ccccc3)c2=O)CC1 [Example 101, N-(5-Chloro-2-methoxyphenyl)-2-(1-{2-[(1,5-dimethyl-3-oxo-2-phenyl-2,3-dihydro-1H-pyrazol-4-yl)amino]-2-oxoethyl}cyclopropyl)acetamide] | 3200 nM | 450 nM
Cc1cccc(-n2c(=O)c(NC(=O)CC(C)(C)CC(=O)Nc3cc(Cl)ccc3OC(F)(F)F)c(C)n2C)n1 [Example 154, N-[5-Chloro-2-(trifluoromethoxy)phenyl]-N′-[1,5-dimethyl-2-(6-methyl-2-pyridyl)-3-oxo-2,3-dihydro-1H-pyrazol-4-yl]-3,3-dimethylpentanediamide] | 110 nM | 82 nM
COc1ncc(Cl)cc1C(=O)NCC(C)(C)CC(=O)Nc1c(CN(C)C)n(C)n(-c2ccccc2)c1=O [Example 7, 5-Chloro-N-[4-({5-[(dimethylamino)methyl]-1-methyl-3-oxo-2-phenyl-2,3-dihydro-1H-pyrazol-4-yl}amino)-2,2-dimethyl-4-oxobutyl]-2-methoxypyridine-3-carboxamide] | 470 nM | 110 nM
CCOc1ncc(Cl)cc1C(=O)NCC(C)(C)CC(=O)Nc1c(C)n(CCN2CCOCC2)n(-c2ccccc2)c1=O [Example 142, 5-Chloro-N-(2,2-dimethyl-4-{[5-methyl-1-(2-morpholinoethyl)-3-oxo-2-phenyl-2,3-dihydro-1H-pyrazol-4-yl]amino}-4-oxobutyl)-2-ethoxypyridine-3-carboxamide] | 180 nM | 61 nM
CCOc1ncc(Cl)cc1C(=O)NCC(C)(C)CC(=O)Nc1c(C)n(C)n(-c2cccc(C)n2)c1=O [Example 153, 5-Chloro-N-(4-{[1,5-dimethyl-2-(6-methyl-2-pyridyl)-3-oxo-2,3-dihydro-1H-pyrazol-4-yl]amino}-2,2-dimethyl-4-oxobutyl)-2-ethoxypyridine-3-carboxamide] | 210 nM | 98 nM
Cc1c(NC(=O)CC(C)(O)CNC(=O)c2cc(Cl)c(F)cc2OC(C)C)c(=O)n(-c2ccccc2)n1C (stereo not shown) [Example 97, 5-Chloro-N-{4-[(1,5-dimethyl-3-oxo-2-phenyl-2,3-dihydro-1H-pyrazol-4-yl)amino]-2-hydroxy-2-methyl-4-oxobutyl}-4-fluoro-2-isopropoxybenzamide] | 1000 nM | 100 nM
CCOc1ccc(Cl)cc1NC(=O)CC(C)(CC(=O)Nc1c(C)n(C)n(-c2ccccc2)c1=O)OC(C)=O (stereo not shown) [Example 102, {1-[2-(5-Chloro-2-ethoxyaniline)-2-oxoethyl]-3-[(1,5-dimethyl-3-oxo-2-phenyl-2,3-dihydro-1H-pyrazol-4-yl)amino]-1-methyl-3-oxopropyl} acetate] | 780 nM | 150 nM
CCOc1ccc(Cl)cc1C(=O)NCC(C)(C)CC(=O)Nc1c(COc2cccnc2)n(C)n(-c2ccccc2)c1=O [Example 135, 5-Chloro-N-(2,2-dimethyl-4-{[1-methyl-3-oxo-2-phenyl-5-(3-pyridyloxymethyl)pyrazol-4-yl]amino}-4-oxobutyl)-2-ethoxybenzamide] | 120 nM | 100 nM
C=Cn1c(C)c(NC(=O)CC(C)(C)CC(=O)Nc2cc(Cl)c(F)cc2OC)c(=O)n1-c1ccccc1 [Example 143, N-(5-Chloro-4-fluoro-2-methoxyphenyl)-3,3-dimethyl-N′-(3-methyl-5-oxo-1-phenyl-2-vinylpyrazol-4-yl)pentanediamide] | 1200 nM | 260 nM
COc1ccc(Cl)cc1C(=O)NCC(C)(C)CC(=O)Nc1c(CCN(C)C)n(C)n(-c2ccccc2)c1=O [Example 22, 5-Chloro-N-[4-({5-[2-(dimethylamino)ethyl]-1-methyl-3-oxo-2-phenyl-2,3-dihydro-1H-pyrazol-4-yl}amino)-2,2-dimethyl-4-oxobutyl]-2-methoxybenzamide] | 460 nM | 110 nM
COc1ccc(Cl)cc1NC(=O)CC(C)(C)CC(=O)Nc1cn(C)n(-c2ccccc2)c1=O [Example 136, N-(5-Chloro-2-methoxyphenyl)-3,3-dimethyl-N′-(1-methyl-3-oxo-2-phenyl-2,3-dihydro-1H-pyrazol-4-yl)pentanediamide] | 1700 nM | 310 nM
CCOc1ccc(Cl)cc1C(=O)NCC(C)(C)CC(=O)Nc1c(CCCN(C)C)n(C)n(-c2ccccc2)c1=O [Example 63, 5-Chloro-N-[4-({5-[3-(dimethylamino)propyl]-1-methyl-3-oxo-2-phenyl-2,3-dihydro-1H-pyrazol-4-yl}amino)-2,2-dimethyl-4-oxobutyl]-2-ethoxybenzamide] | 100 nM | 29 nM
CCOc1ccc(Cl)cc1C(=O)NCC(C)(C)CC(=O)Nc1c(CCNC(C)C)n(C)n(-c2ccccc2)c1=O [Example 18, 5-Chloro-N-[4-({5-[2-(isopropylamino)ethyl]-1-methyl-3-oxo-2-phenyl-2,3-dihydro-1H-pyrazol-4-yl}amino)-2,2-dimethyl-4-oxobutyl]-2-ethoxybenzamide] | 550 nM | 65 nM
CCOc1ccc(Cl)cc1C(=O)NCC(C)(C)CC(=O)Nc1c(C)n(C)n(-c2ccccc2)c1=O [Example 93, 5-Chloro-N-{4-[(1,5-dimethyl-3-oxo-2-phenyl-2,3-dihydro-1H-pyrazol-4-yl)amino]-2,2-dimethyl-4-oxobutyl}-2-ethoxybenzamide] | 55 nM | 25 nM
Cc1c(NC(=O)CC(C)(C)CNC(=O)c2cc(Cl)cc3c2OC(C)CN3)c(=O)n(-c2ccccc2)n1C (stereo not shown) [Example 109] | 200 nM | 200 nM
CCOc1ccc(Cl)cc1NC(=O)CC(C)(O)CC(=O)Nc1c(C)n(C)n(-c2ccccc2)c1=O (stereo not shown) [Example 103, N-(5-Chloro-2-ethoxyphenyl)-N′-(1,5-dimethyl-3-oxo-2-phenyl-2,3-dihydro-1H-pyrazol-4-yl)-3-hydroxy-3-methylpentanediamide] | 1400 nM | 170 nM
CCOc1ccc(Cl)cc1C(=O)NCC(C)(C)CC(=O)Nc1c(C)n(C)n(-c2ccccn2)c1=O [Example 149, 5-Chloro-N-(4-{[1,5-dimethyl-3-oxo-2-(2-pyridyl)pyrazol-4-yl]amino}-2,2-dimethyl-4-oxobutyl)-2-ethoxybenzamide] | 190 nM | 100 nM
COc1ccc(Cl)cc1NC(=O)CC(C)(C)CC(=O)Nc1c(C(C)C)n(C)n(-c2ccccc2)c1=O [Example 128, N-(5-Chloro-2-methoxyphenyl)-N′-(5-isopropyl-1-methyl-3-oxo-2-phenyl-2,3-dihydro-1H-pyrazol-4-yl)-3,3-dimethylpentanediamide] | 590 nM | 190 nM
CCOc1ccc(Cl)cc1NC(=O)CC(C)(C)CC(=O)Nc1c(CCN(C)C)n(C)n(-c2ccccc2)c1=O [Example 23, N-(5-Chloro-2-ethoxyphenyl)-N′-{5-[2-(dimethylamino)ethyl]-1-methyl-3-oxo-2-phenyl-2,3-dihydro-1H-pyrazol-4-yl}-3,3-dimethylpentanediamide] | 270 nM | 110 nM
CCOc1ccc(Cl)cc1C(=O)NCC(C)(C)CC(=O)Nc1c(CCNC)n(C)n(-c2ccccc2)c1=O [Example 33, 5-Chloro-N-[2,2-dimethyl-4-({1-methyl-5-[2-(methylamino)ethyl]-3-oxo-2-phenyl-2,3-dihydro-1H-pyrazol-4-yl}amino)-4-oxobutyl]-2-ethoxybenzamide] | 130 nM | 63 nM

Source: patent publication US20170107207A1, “AMINOPYRAZOLONE DERIVATIVE” (DAIICHI SANKYO COMPANY, LIMITED, priority 2014, published 2017)
